Measured values: US6365360B1, “Methods of identifying modulators of human IP prostaglandin receptor” (Merck Frosst Canada & Co., priority 1993, dated 2002)

Legend:
[1] = test system: endogenous IP receptors in oocytes; experiment: Control oocytes injected with CFTR cDNA alone (voltage clamp); format: cell-based, Xenopus laevis; details: 100 nM
Procedure: The broken line represents the zero current level.
(§1) The voltage-clamp experiments shown here were performed 48 hr after nuclear injection and are representative of 6 separate experiments with oocytes from 3 different frogs.
(§2) Oocytes were taken from adult females of Xenopus laevis using standard surgical procedure (Colman, A., 1984 In: Transcription and Translation—A Practical Approach, IRL Press). To remove follicle cells, oocytes were treated for 2-3 h with freshly made collagenase (2 mg/ml, type 2, Worthington Biochemical Corp., Freehold, N.J.) in Ca^2+-free ND96 solution (ND96 in mM: NaCl 96, KCl 2, MgCl2 1, HEPES 5, Na-pyruvate 2.5, theophylline 0.5, gentamicin […], +1.8 CaCl2, pH 7.6). Defolliculated stage 5-6 oocytes were selected and maintained in ND96 solution. Oocyte nuclei were injected with 1.6 ng of pcDNAlamp-IP plus 2.5 ng of pcDNAIamp-CFTR and then incubated at 18° C. for 48 h before challenge with agonist. CFTR (cystic fibrosis transmembrane regulator, a cAMP dependent Cl^− channel) was co-expressed with IP receptor in these oocytes and served as a reporter of changes in intracellular cAMP levels. Functional activity was determined by measurement of Iloprost-induced CFTR-mediated Cl^− current. An oocyte was placed in a 0.5 ml perfusion chamber and voltage clamped at −60 mV (with microelectrodes of 0.5-2.0 MW resistance filled with 3 M KCl) using a Turbo TEC 01C amplifier (NPl Instruments, Germany). Ligand-containing solution was perfused and the current response was recorded.
(§3) This rank order of potency is consistent with that reported for the IP receptor [Coleman, et al., 1990. Comprehensive Medicinal Chemistry (Hansch, C., Sammes, P. G., Taylor, J. B., and Emmett, J. C., Eds) Vol. 3, pp. 643-714, Pergamon, Press, Oxford].

[2] = target: T1, human prostaglandin I2 (IP) receptor (Homo sapiens, UniProt P43119); experiment: [3H]iloprost competition binding to membranes of pcDNAIamp-hIP transfected COS-M6 cells; details: for competition for [3H]iloprost specific binding to the hIP receptor: at a concentration of 30 μM; for IC50: read-out: IC50, competition for [3H]iloprost specific binding, 4 nM [3H]iloprost, COS-M6 membranes, pH 6.0, 45 min at 30° C.
T1 construct: A DNA molecule encoding the full length IP protein has been isolated and purified; expressed in transfected cells; host or cells: COS-M6 cells (membrane fraction), pcDNAIamp-hIP, DEAE-dextran transfection

[3] = target: T2, IP receptor (hIP cDNA) (Homo sapiens, UniProt P43119); experiment: CFTR-mediated Cl- current in Xenopus oocytes co-injected with pcDNAIamp-IP and pcDNAIamp-CFTR (voltage clamp); format: cell-based; details: oocyte clamped at -60 mV, 48 h after injection
T2 construct: A DNA molecule encoding the full length IP protein has been isolated and purified; expressed in transfected cells; host or cells: Xenopus laevis oocytes, nuclear injection of pcDNAIamp-IP plus pcDNAIamp-CFTR
Procedure: FIG. 5A and 5B —Expression of the prostaglandin 12 receptor in IP cDNA-injected Xenopus oocytes is shown.
as §1, §2, §3

T2 sequence (P43119 whole entry): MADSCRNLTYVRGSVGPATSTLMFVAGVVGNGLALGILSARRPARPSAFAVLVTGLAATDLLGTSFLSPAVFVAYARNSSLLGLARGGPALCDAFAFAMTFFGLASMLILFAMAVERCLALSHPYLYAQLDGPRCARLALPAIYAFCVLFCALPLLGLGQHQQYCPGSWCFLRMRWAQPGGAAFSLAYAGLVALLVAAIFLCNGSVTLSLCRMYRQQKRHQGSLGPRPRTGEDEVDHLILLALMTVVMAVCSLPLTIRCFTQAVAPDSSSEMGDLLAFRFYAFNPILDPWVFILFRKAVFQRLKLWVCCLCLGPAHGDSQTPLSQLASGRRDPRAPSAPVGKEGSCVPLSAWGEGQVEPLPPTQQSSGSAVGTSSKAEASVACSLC
T1 sequence (P43119 whole entry): as above

Row | Structure (SMILES) | current response in control (CFTR alone injected) oocytes [1] | competition for [3H]iloprost specific binding to the hIP receptor [2] | CFTR-mediated Cl- current response ([3]; 100 nM) | IC50 [2] | CFTR-mediated Cl- current response ([3]; perfusion of 1-100 nM)
1 | CCCCC[C@H](O)/C=C/[C@H]1[C@H](O)CC(=O)[C@@H]1C/C=C\CCCC(=O)O [PGE2] | no responses |  | not detectable | ~10 µM | 
2 | CCCCC[C@H](O)/C=C/[C@@H]1[C@@H](C/C=C\CCCC(=O)O)[C@H]2CO[C@@H]1C2 [U46619] |  | essentially inactive |  |  | 

Continued, values first:

Row | current response in control (CFTR alone injected) oocytes [1] | competition for [3H]iloprost specific binding to the hIP receptor [2] | CFTR-mediated Cl- current response ([3]; 100 nM) | IC50 [2] | CFTR-mediated Cl- current response ([3]; perfusion of 1-100 nM) | Structure (SMILES)
3 | no responses | essentially inactive | not detectable |  |  | CCCCC[C@H](O)/C=C/[C@H]1C(=O)C[C@H](O)[C@@H]1C/C=C\CCCC(=O)O [PGD2]
4 |  |  |  | ~10 µM |  | CCCCC[C@H](O)/C=C/[C@@H]1[C@@H](C/C=C\CCCC(=O)O)[C@@H](O)C[C@H]1O [PGF2α]
5 | no responses |  |  |  | prominent current responses | CC#CCC(C)[C@H](O)/C=C/[C@@H]1[C@H]2C/C(=C/CCCC(=O)O)C[C@H]2C[C@H]1O (stereo partly shown) [iloprost]
